Measured values reported in publication PMC7766232, “Cyclic RGD and isoDGR Integrin Ligands Containing cis-2-amino-1-cyclopentanecarboxylic (cis-β-ACPC) Scaffolds” (Molecules, 2020).
Read-outs that look alike come from different tables or passages of the source. Starred links: 1 amine or outer side, 2 acyl side, 3 side chain; linkers in the order of their positions; H or OH if unused. Positions of bridges follow the written chain, without caps; N, C: chain ends. Non-standard residues stand in square brackets, D forms with d. Residues, ends and D or L forms follow the SMILES beside them. X1 = O=C([C@@H]1CCC[C@@H]1N[*:1])[*:2]

How the values were obtained:
purified α5β1 receptor [1] = biological target: T1, purified α5β1 receptor (Homo sapiens, UniProt P05556+P08648); experiment: Competitive binding assay to purified α5β1 receptor (displacement of biotinylated fibronectin); settings: immobilized integrin α5β1, biotinylated fibronectin 1 μg mL−1; mean ± SD of duplicate determinations
Description: (§1) The cyclic peptidomimetics 8–10 were analyzed in a first instance for their competitive binding to purified αvβ3 and α5β1 receptors with respect to the biotinylated vitronectin or fibronectin, respectively. The IC50 values are collected in Table 1, where the values of Cilengitide (1a), cyclo-[RGDfV] (1b), cyclo-[DKP-RGD] (4), and cyclo-[DKP-isoDGR] (7), measured using the same procedure, are included as reference compounds for the RGD and isoDGR series. The new RGD compounds cyclo-[-Arg-Gly-Asp-(1S,2R)-β-ACPC-Val-] (8) and cyclo-[-Arg-Gly-Asp-(1R,2S)-β-ACPC-Val-] […] (10) is a micromolar binder for both integrins, much weaker than cyclo-[DKP-isoDGR] (7) in the case of αvβ3.
(§2) The inhibition assays of biotinylated vitronectin and fibronectin binding to the αvβ3 and α5β1 receptors, for compounds 8–10 were carried out as previously reported. […] Screening assays were performed by incubating the immobilized integrin αvβ3 or α5β1 with increasing concentrations (10^−12–10^−5 M/10^−11–10^−4 M) of the RGD and isoDGR ligands in the presence of the corresponding biotinylated ECM protein (1 μg mL^−1), and measuring bound protein in the presence of the competitive ligand. Each data point is the result of the average of triplicate wells and was analyzed by nonlinear regression analysis with the GraphPad Prism software. Each experiment was repeated in duplicate. IC50 values are the arithmetic mean ± the standard deviation (SD) of these duplicate determinations.

purified αvβ3 receptor [2] = biological target: T2, purified αvβ3 receptor (Homo sapiens, UniProt P05106+P06756); experiment: Competitive binding assay to purified αvβ3 receptor (displacement of biotinylated vitronectin); settings: for IC50: immobilized integrin αvβ3, biotinylated vitronectin 1 μg mL−1, mean ± SD of duplicate determinations; for selectivity ratio (IC50α5β1/IC50αvβ3): ratio of competitive binding IC50 values, α5β1 over αvβ3
Description: as §1, §2

WM115 cells = WM115 cells (Homo sapiens, UniProt P05106+P06756); type: cell-based
Description: WM-115 cells were washed with MEM (Minimum Essential Medium)-buffer, detached with trypsin and resuspended to a cell density of 1 × 10^5 cells/mL. WM-115 cells were then incubated with fluorescein diacetate for 30 min at 37 °C in the dark, washed with MEM medium and resuspended with MEM medium containing CaCl2 and MgCl2 (2 mM) and incubated on ice for 30 min in the dark. […] 0.00195313, 0.00097565, 0.00048828, 0.00024414). Cells and peptide were incubated for 30 min at 37° C in the dark and afterwards added to the 96-well ELISA-plates previously coated with vitronectin and incubated for 1 h at 37 °C in the dark. Unbound cells were aspirated, and bound cells were washed three times with MEM medium and fluorescence measured (λex: 485 nm, λem: 514 nm) with an InfiniteTM 200 Microplate Reader (Tecan, Männedorf, Switzerland). […] The IC50 values were determined four times per peptide in two independent assays here reported, and the final values are the arithmetic mean ± the standard deviation (SD) of the two independent assays. The reference peptide […] was tested together with the peptides.

purified α5β1 receptor [3] = biological target: T1, purified α5β1 receptor; parameters: method as in PMID 23424096, PMID 28934103, PMID 28168158, PMID 31275795; settings: reference compounds, measured using the same procedure; biotinylated fibronectin; mean ± SD; ref [29],[48],[49],[50]; cited from earlier work
purified αvβ3 receptor [4] = biological target: T2, purified αvβ3 receptor; parameters: method as in PMID 23424096, PMID 28934103, PMID 28168158, PMID 31275795; settings: reference compounds, measured using the same procedure; biotinylated vitronectin; mean ± SD; ref [29],[48],[49],[50]; cited from earlier work
[5] = read-out: IC50 (50% inhibition of cell adhesion to vitronectin), WM115 cells, fluorescein labeled, mean ± SD of two independent assays
[6] = read-out: IC50 cell adhesion, 1° Assay, WM-115 cells, vitronectin-coated plates, first independent assay (Figure S4)
[7] = read-out: IC50 cell adhesion, 2° Assay, WM-115 cells, vitronectin-coated plates, second independent assay (Figure S5)

Compound	IC50 (purified α5β1 receptor [1])	IC50 (purified αvβ3 receptor [2])	selectivity ratio (IC50α5β1/IC50αvβ3) (purified αvβ3 receptor [2])	IC50 (WM115 cells; [5])	IC50 (WM115 cells; [6])	IC50 (WM115 cells; [7])	IC50 (50% inhibition of cell adhesion to vitronectin) (WM115 cells; WM115 cells, fluorescein labeled, mean ± SD of two independent assays)	IC50 (purified α5β1 receptor [3])	IC50 (purified αvβ3 receptor [4])
CC(C)[C@@H]1NC(=O)[C@H]2CCC[C@H]2NC(=O)[C@H](CC(=O)O)NC(=O)CNC(=O)[C@H](CCCNC(=N)N)NC1=O [Compound 8, cyclo-[-Arg-Gly-Asp-(1S,2R)-β-ACPC-Val-]]	3.23 ± 1.47 µM	0.0443 ± 0.004 µM	~73	75 ± 32.5 µM	52 µM	98 µM			
CC(C)[C@@H]1NC(=O)[C@@H]2CCC[C@@H]2NC(=O)[C@H](CC(=O)O)NC(=O)CNC(=O)[C@H](CCCNC(=N)N)NC1=O [Compound 9, cyclo-[-Arg-Gly-Asp-(1R,2S)-β-ACPC-Val-]]	0.468 ± 0.114 µM	0.039 ± 0.0011 µM	about 12	124 µM	117 µM	132 µM			
CC(C)[C@@H]1NC(=O)[C@@H]2CCC[C@@H]2NC(=O)[C@H](CCCNC(=N)N)NC(=O)CNC(=O)C[C@@H](C(=O)O)NC1=O [Compound 10, cyclo-[-isoAsp-Gly-Arg-(1R,2S)-β-ACPC-Val-]] (GR[X1]VD-OH; lactam N-5)	2.33 ± 0.134 µM	5.36 ± 0.281 µM			> 300 µM	> 300 µM	could not be measured		
cyclo-(-DKP-isoAsp-Gly-Arg-) [Compound 7]								1.07 ± 0.228 µM	0.0092 ± 0.0011 µM
cyclo-[-DKP-Arg-Gly-Asp-] [Compound 4]								0.532 ± 0.035 µM	0.0045 ± 0.0011 µM
cyclo[Arg-Gly-Asp-NMe Val-D-Phe] [Compound 1a]									0.00071 ± 6e-05 µM
